Laboratory results reported in ChEMBL document CHEMBL4507263, “Data for DCP probe BAY-474” (2021).

How the values were obtained:
[1] = biological target: Calcium/calmodulin-dependent protein kinase type 1D (Homo sapiens) (UniProt Q8IU85); conditions: Compound concentration 1000.0 nM
[2] = biological target: Cyclin-dependent kinase 3 (Homo sapiens) (UniProt Q00526); conditions: Compound concentration 1000.0 nM
[3] = biological target: Cyclin-dependent kinase 4 (Homo sapiens) (UniProt P11802); conditions: Compound concentration 1000.0 nM
[4] = biological target: Dual specificity protein kinase CLK4 (Homo sapiens) (UniProt Q9HAZ1); conditions: Compound concentration 1000.0 nM
[5] = biological target: Epidermal growth factor receptor (Homo sapiens) (UniProt P00533); conditions: Compound concentration 1000.0 nM
[6] = biological target: Ephrin type-A receptor 1 (Homo sapiens) (UniProt P21709); conditions: Compound concentration 1000.0 nM
[7] = biological target: Mitogen-activated protein kinase 3 (Homo sapiens) (UniProt P27361); conditions: Compound concentration 1000.0 nM
[8] = system: Receptor-type tyrosine-protein kinase FLT3 (Homo sapiens), P36888 [D835V]; conditions: Compound concentration 1000.0 nM
[9] = biological target: G protein-coupled receptor kinase 3 (Homo sapiens) (UniProt P35626); conditions: Compound concentration 1000.0 nM
[10] = biological target: Mitogen-activated protein kinase kinase kinase 3 (Homo sapiens) (UniProt Q99759); conditions: Compound concentration 1000.0 nM
[11] = biological target: Myosin light chain kinase (Homo sapiens) (UniProt Q32MK0); conditions: Compound concentration 1000.0 nM
[12] = biological target: Muscle, skeletal receptor tyrosine-protein kinase (Homo sapiens) (UniProt O15146); conditions: Compound concentration 1000.0 nM
[13] = biological target: Serine/threonine-protein kinase PAK 2 (Homo sapiens) (UniProt Q13177); conditions: Compound concentration 1000.0 nM
[14] = biological target: Cyclin-dependent kinase 16 (Homo sapiens) (UniProt Q00536); conditions: Compound concentration 1000.0 nM
[15] = biological target: Phosphatidylinositol 4-phosphate 3-kinase C2 domain-containing subunit beta (Homo sapiens) (UniProt O00750); conditions: Compound concentration 1000.0 nM
[16] = biological target: Serine/threonine-protein kinase N1 (Homo sapiens) (UniProt Q16512); conditions: Compound concentration 1000.0 nM
[17] = biological target: Serine/threonine-protein kinase PLK3 (Homo sapiens) (UniProt Q9H4B4); conditions: Compound concentration 1000.0 nM
[18] = biological target: cAMP-dependent protein kinase catalytic subunit PRKX (Homo sapiens) (UniProt P51817); conditions: Compound concentration 1000.0 nM
[19] = biological target: SNF-related serine/threonine-protein kinase (Homo sapiens) (UniProt Q9NRH2); conditions: Compound concentration 1000.0 nM
[20] = biological target: Serine/threonine-protein kinase 16 (Homo sapiens) (UniProt O75716); conditions: Compound concentration 1000.0 nM
[21] = biological target: Serine/threonine-protein kinase TBK1 (Homo sapiens) (UniProt Q9UHD2); conditions: Compound concentration 1000.0 nM
[22] = biological target: Serine/threonine-protein kinase tousled-like 1 (Homo sapiens) (UniProt Q9UKI8); conditions: Compound concentration 1000.0 nM
[23] = biological target: Serine/threonine-protein kinase ULK1 (Homo sapiens) (UniProt O75385); conditions: Compound concentration 1000.0 nM
[24] = biological target: Serine/threonine-protein kinase 25 (Homo sapiens) (UniProt O00506); conditions: Compound concentration 1000.0 nM
[25] = biological target: Tyrosine-protein kinase ZAP-70 (Homo sapiens) (UniProt P43403); conditions: Compound concentration 1000.0 nM
[26] = biological target: Activated CDC42 kinase 1 (Homo sapiens) (UniProt Q07912); assay: ACK1 (h) Millipore kinase activity assay; conditions: Compound concentration 1.0 uM
[27] = biological target: Calcium/calmodulin-dependent protein kinase type II subunit gamma (Homo sapiens) (UniProt Q13555); assay: CaMKIIgamma (h) Millipore kinase activity assay; conditions: Compound concentration 1.0 uM
[28] = biological target: Calcium/calmodulin-dependent protein kinase type IV (Homo sapiens) (UniProt Q16566); assay: CaMKIV (h) Millipore kinase activity assay; conditions: Compound concentration 1.0 uM
[29] = biological target: Mitogen-activated protein kinase 9 (Homo sapiens) (UniProt P45984); assay: JNK2alpha2 (h) Millipore kinase activity assay; conditions: Compound concentration 1.0 uM
[30] = biological target: Mitogen-activated protein kinase 1 (Homo sapiens) (UniProt P28482); assay: MAPK2( h) Millipore kinase activity assay; conditions: Compound concentration 1.0 uM
[31] = biological target: T1, cGMP-dependent protein kinase 1 (Homo sapiens) (UniProt Q13976); assay: PKG1beta (h) Millipore kinase activity assay; conditions: Compound concentration 1.0 uM
T1 sequence (whole entry): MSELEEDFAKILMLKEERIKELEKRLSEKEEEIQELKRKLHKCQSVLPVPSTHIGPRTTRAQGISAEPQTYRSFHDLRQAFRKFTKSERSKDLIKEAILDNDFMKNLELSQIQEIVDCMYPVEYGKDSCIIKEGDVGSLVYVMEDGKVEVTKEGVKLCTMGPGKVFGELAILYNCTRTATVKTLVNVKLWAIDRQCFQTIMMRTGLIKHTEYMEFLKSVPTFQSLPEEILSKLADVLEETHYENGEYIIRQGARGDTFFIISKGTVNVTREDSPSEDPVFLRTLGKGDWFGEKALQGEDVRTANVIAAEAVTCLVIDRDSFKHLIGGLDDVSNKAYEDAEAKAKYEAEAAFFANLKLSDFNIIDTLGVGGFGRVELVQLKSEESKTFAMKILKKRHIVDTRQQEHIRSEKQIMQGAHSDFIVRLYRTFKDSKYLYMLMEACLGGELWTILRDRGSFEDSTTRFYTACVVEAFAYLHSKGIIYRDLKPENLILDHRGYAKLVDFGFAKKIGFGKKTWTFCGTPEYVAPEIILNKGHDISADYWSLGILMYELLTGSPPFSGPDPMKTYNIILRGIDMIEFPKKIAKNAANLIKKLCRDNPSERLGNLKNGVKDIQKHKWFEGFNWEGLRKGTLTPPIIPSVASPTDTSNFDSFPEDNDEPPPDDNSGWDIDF

[32] = biological target: Serine/threonine-protein kinase TBK1 (Homo sapiens) (UniProt Q9UHD2); assay: TBK1 (h) Millipore kinase activity assay; conditions: Compound concentration 1.0 uM
Rattus norvegicus = species on record: Rattus norvegicus; assay: Inhibition of Imidazoline I2, Central at 10 µM in the Eurofins-Panlabs radioligand binding assay (Eurofins_assay_241000); set-up: ligand concentration 2 nM; conditions: Compound concentration 10.0 uM
[33] = biological target: D(3) dopamine receptor (Homo sapiens) (UniProt P35462); conditions: Compound concentration 10.0 uM
[34] = biological target: Adenosine receptor A1 (Homo sapiens) (UniProt P30542); conditions: Compound concentration 10.0 uM
[35] = biological target: Endothelin receptor type B (Homo sapiens) (UniProt P24530); conditions: Compound concentration 10.0 uM
Endothelin receptor type B (Homo sapiens), sequence (P24530 whole entry): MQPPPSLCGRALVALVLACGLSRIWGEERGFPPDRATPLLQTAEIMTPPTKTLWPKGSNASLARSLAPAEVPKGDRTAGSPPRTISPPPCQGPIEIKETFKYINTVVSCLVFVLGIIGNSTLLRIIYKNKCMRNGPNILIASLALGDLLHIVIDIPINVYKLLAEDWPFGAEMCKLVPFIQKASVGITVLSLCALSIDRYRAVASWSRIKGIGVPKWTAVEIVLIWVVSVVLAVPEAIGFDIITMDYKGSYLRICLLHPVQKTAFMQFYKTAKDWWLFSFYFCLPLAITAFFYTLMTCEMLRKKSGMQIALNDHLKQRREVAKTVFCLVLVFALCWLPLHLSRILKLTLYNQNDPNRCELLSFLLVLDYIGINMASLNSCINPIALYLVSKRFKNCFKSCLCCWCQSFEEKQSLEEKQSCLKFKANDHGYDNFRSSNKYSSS

Serine/threonine-protein kinase TBK1 (Homo sapiens), sequence (Q9UHD2 whole entry): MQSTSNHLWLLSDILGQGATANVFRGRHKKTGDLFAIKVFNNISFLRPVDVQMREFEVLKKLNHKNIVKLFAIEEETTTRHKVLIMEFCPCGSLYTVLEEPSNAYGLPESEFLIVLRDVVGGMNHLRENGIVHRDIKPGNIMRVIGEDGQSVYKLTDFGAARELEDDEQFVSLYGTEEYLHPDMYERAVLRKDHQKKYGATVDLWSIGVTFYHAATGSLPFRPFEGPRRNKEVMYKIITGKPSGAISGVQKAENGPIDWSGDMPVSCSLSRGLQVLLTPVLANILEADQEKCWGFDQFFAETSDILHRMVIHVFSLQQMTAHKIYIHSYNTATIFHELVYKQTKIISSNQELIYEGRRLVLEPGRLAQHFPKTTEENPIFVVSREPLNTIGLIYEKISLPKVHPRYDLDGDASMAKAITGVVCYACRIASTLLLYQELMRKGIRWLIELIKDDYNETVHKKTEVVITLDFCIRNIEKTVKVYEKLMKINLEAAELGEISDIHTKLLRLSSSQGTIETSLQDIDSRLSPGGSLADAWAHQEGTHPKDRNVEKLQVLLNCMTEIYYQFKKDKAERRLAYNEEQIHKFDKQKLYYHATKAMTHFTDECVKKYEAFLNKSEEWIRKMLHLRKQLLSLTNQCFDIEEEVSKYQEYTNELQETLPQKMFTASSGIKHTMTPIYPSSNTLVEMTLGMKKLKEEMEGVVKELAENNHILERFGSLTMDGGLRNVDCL
Calcium/calmodulin-dependent protein kinase type IV (Homo sapiens), sequence (Q16566 whole entry): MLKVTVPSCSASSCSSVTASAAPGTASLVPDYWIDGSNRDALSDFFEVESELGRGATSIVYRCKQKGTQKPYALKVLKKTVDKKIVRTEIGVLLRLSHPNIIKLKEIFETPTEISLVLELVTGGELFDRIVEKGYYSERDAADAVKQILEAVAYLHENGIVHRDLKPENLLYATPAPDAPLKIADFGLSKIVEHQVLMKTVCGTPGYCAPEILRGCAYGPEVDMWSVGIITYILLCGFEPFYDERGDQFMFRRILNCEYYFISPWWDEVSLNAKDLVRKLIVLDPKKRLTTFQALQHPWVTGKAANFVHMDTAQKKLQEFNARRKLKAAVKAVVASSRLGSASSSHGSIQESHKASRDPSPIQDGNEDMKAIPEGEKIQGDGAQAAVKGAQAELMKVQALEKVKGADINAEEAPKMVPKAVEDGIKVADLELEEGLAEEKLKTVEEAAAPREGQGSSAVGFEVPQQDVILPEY
Mitogen-activated protein kinase 9 (Homo sapiens), sequence (P45984 whole entry, looked up): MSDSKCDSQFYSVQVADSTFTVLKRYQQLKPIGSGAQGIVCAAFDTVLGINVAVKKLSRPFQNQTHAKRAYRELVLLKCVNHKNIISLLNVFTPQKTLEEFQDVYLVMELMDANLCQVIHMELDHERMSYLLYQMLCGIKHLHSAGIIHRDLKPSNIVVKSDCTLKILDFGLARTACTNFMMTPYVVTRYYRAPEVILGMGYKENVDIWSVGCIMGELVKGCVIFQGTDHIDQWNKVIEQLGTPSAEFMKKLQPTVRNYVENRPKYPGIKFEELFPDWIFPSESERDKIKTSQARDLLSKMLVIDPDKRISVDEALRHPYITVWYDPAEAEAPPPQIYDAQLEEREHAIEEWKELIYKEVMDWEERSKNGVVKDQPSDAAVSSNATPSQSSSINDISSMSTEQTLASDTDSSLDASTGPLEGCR
cAMP-dependent protein kinase catalytic subunit PRKX (Homo sapiens), sequence (P51817 whole entry): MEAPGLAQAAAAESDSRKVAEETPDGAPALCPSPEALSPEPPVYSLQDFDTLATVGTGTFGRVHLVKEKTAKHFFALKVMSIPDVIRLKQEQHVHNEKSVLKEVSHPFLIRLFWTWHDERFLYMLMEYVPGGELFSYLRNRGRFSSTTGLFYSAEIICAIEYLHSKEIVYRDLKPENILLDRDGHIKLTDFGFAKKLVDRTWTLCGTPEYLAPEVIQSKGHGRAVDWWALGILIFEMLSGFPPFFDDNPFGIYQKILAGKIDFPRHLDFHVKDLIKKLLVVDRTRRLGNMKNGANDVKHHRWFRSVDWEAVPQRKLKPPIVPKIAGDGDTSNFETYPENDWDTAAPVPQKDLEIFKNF
Ephrin type-A receptor 1 (Homo sapiens), sequence (P21709 whole entry): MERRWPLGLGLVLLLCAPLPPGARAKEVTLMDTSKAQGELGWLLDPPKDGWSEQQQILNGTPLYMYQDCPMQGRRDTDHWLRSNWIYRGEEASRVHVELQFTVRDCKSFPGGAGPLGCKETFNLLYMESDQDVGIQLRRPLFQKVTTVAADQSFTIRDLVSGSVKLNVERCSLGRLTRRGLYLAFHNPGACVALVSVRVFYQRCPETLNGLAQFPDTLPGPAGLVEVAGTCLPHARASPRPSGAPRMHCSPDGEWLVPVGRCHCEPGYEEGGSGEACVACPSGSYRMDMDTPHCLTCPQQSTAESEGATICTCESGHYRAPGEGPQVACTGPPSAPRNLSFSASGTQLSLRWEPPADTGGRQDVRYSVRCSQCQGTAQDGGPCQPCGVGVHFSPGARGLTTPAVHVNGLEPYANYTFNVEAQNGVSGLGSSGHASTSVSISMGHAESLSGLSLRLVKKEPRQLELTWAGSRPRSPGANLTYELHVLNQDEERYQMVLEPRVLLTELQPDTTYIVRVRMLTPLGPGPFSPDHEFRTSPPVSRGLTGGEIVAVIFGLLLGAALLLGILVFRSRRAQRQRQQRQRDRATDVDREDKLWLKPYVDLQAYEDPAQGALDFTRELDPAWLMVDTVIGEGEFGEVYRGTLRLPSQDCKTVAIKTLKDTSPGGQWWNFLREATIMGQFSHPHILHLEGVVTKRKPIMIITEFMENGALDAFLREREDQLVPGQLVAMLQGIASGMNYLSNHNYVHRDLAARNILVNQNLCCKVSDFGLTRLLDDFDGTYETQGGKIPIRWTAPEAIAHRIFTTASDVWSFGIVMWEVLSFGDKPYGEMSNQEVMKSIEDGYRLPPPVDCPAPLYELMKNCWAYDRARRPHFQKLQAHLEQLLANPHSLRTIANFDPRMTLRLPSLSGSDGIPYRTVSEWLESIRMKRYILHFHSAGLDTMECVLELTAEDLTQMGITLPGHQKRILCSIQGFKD
Serine/threonine-protein kinase tousled-like 1 (Homo sapiens), sequence (Q9UKI8 whole entry): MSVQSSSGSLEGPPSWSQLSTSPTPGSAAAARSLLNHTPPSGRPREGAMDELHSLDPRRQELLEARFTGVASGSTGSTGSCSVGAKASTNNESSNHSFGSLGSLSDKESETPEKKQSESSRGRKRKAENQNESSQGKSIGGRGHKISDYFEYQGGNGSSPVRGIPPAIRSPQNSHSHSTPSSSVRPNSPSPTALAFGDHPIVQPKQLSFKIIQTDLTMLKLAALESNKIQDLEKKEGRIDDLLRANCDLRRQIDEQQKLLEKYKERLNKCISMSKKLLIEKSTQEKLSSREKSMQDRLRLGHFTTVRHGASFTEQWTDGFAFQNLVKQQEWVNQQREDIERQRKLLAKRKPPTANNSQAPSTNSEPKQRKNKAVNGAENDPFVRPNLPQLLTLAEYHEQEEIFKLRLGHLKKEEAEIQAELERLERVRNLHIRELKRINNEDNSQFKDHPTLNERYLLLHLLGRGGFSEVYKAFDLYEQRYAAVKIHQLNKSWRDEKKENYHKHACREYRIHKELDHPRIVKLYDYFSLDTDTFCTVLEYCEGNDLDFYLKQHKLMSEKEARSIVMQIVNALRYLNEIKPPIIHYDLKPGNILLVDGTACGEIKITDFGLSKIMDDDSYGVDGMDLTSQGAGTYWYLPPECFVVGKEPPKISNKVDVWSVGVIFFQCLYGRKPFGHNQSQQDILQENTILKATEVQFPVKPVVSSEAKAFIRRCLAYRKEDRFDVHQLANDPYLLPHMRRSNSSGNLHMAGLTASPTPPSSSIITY
Muscle, skeletal receptor tyrosine-protein kinase (Homo sapiens), sequence (O15146 whole entry): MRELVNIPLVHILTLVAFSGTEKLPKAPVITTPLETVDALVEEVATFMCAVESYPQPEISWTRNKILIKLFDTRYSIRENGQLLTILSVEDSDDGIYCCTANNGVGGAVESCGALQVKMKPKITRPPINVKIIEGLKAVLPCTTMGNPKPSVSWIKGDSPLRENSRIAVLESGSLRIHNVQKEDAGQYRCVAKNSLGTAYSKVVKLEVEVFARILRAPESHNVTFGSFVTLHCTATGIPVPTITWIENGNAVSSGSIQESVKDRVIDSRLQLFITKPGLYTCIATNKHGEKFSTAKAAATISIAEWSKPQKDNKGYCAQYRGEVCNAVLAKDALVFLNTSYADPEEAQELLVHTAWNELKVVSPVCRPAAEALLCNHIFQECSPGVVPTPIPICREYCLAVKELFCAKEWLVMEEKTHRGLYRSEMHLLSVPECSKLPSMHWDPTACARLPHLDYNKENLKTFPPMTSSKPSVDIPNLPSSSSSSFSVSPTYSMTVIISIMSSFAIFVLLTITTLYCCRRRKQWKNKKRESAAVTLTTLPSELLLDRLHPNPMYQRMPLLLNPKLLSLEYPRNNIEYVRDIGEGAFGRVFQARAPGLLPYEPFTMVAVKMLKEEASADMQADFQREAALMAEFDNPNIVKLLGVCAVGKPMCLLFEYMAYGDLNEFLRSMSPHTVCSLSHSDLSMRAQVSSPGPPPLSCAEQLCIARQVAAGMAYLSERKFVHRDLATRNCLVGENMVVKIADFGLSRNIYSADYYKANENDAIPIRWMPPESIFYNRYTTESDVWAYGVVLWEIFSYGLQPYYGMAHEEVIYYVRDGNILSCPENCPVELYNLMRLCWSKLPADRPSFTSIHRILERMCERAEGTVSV

CC1=C(C#N)[C@@H](c2ccc3[nH]nc(C)c3c2)C(C#N)=C(c2ccc(Cl)cc2)N1 [BAY-827]
inactive: residual activity [1] 100% | residual activity [2] 100% | residual activity [3] 78.8% | residual activity [4] 100% | residual activity [5] 100% | residual activity [6] 100% | residual activity [7] 100% | residual activity [8] 89.7% | residual activity [9] 85.3% | residual activity [10] 100% | residual activity [11] 100% | residual activity [12] 100% | residual activity [13] 100% | residual activity [14] 88.9% | residual activity [15] 100% | residual activity [16] 91.4% | residual activity [17] 77.5% | residual activity [18] 100% | residual activity [19] 100% | residual activity [20] 100% | residual activity [21] 58.7% | residual activity [22] 100% | residual activity [23] 100% | residual activity [24] 100% | residual activity [25] 85.4%

CC1=C(C#N)C(c2ccc3[nH]nc(C)c3c2)C(C#N)=C(C)N1 [BAY-474]
inactive: inhibition [26] 2% | inhibition [27] 2% | inhibition [28] -1% | inhibition [29] 17% | inhibition [30] 4% | inhibition [31] 16% | inhibition [32] -6% | inhibition (Rattus norvegicus) 5% | inhibition [33] 18.1% | inhibition [34] -2% | inhibition [35] 18%
